{"source": "patent US20180169136A1", "about": "“USE OF PHARMACEUTICAL COMPOSITION IN PREPARATION OF DRUG FOR PROMOTING CHONDROCYTE GENERATION” (KAOHSIUNG MEDICAL UNIVERSITY, priority 2015, published 2018)", "key": {"[1]": {"test_system": "aggrecan", "assay": "real-time PCR, chondrogenic gene aggrecan in hADSCs in HA-coated or non-coated wells", "format": "cell-based, human", "settings": "1 μM simvastatin, with or without 1% HA coating, 1 to 5 days", "description": "(§1) Human adipose-derived stem cells (hADSCs) were cultured in wells coated with hyaluronic acid (HA) and without hyaluronic acid (non-HA), and treated with or without 1 μM of simvastatin (SIM) for 1 to 5 days. […]\n(§2) Cells were harvested on designated days and analyzed for the expression of BMP-2 and chondrogenic genes using real-time PCR. […] Real-time PCR reactions were performed and monitored by using iQTM SYBR Green® supermix (Bio-Rad Laboratories Inc, Hercules, Calif.) and a quantitative real-time PCR detection system (Bio-Rad Laboratories Inc, Hercules, Calif.). […] The expression level of each of the target genes, as previously described, was calculated as 2-ΔΔCt. For each gene of interest, four readings were performed for each of the experimental samples, each experiment was repeated for at least three times. […]"}, "[2]": {"test_system": "Sox-9", "assay": "real-time PCR, chondrogenic gene Sox-9 in hADSCs in HA-coated or non-coated wells", "format": "cell-based, human", "settings": "1 μM simvastatin, with or without 1% HA coating, 1 to 5 days", "description": "as §1, §2"}, "[3]": {"test_system": "BMP-2", "assay": "real-time PCR, BMP-2 gene expression in hADSCs in HA-coated or non-coated wells", "format": "cell-based, human", "settings": "relative to Non-HA group day 1 = 1, simvastatin 1 μM, HA 1%", "description": "Human adipose-derived stem cells (hADSCs) were cultured in wells coated with hyaluronic acid (HA) and without hyaluronic acid (non-HA), and treated with or without 1 μM of simvastatin (SIM) for 1 to 5 days. The present invention was therefore divided into four experimental groups: (1) No hyaluronic acid (Non-HA) group: human adipose-derived stem cells were cultured in wells not coated with hyaluronic acid and not treated with simvastatin (1 μM); (2) No hyaluronic acid plus simvastatin (Non-HA+Sim) group: human adipose-derived stem cells were cultured in wells not coated with hyaluronic acid but treated with simvastatin (1 μM); (3) Hyaluronic acid (HA) group: human adipose-derived stem cells were cultured in wells coated with hyaluronic acid but not treated with simvastatin (1 μM); and (4) Hyaluronic acid plus simvastatin (HA+Sim) group: human adipose-derived stem cells were cultured in wells coated with hyaluronic acid and treated with simvastatin (1 μM).\nCells were harvested on designated days and analyzed for the expression of BMP-2 and chondrogenic genes using real-time PCR. Total RNA of these cells was extracted by following the manufacturer's instructions and using TRIzol reagent (Gibco BRL, Rockville, Md.). In short, a reaction volume of 20 μl was taken which contained 0.5 to 1 μg of total RNA, and then RNA was reverse-transcribed into cDNA by using the SuperScript First-Strand Synthesis System (Invitrogen). Real-time PCR reactions were performed and monitored by using iQTM SYBR Green® supermix (Bio-Rad Laboratories Inc, Hercules, Calif.) and a quantitative real-time PCR detection system (Bio-Rad Laboratories Inc, Hercules, Calif.). […] The expression level of each of the target genes, as previously described, was calculated as 2-ΔΔCt. For each gene of interest, four readings were performed for each of the experimental samples, each experiment was repeated for at least three times. […]"}, "[4]": {"test_system": "osteocalcin", "assay": "real-time PCR, osteocalcin gene expression in hADSCs in HA-coated or non-coated wells", "format": "cell-based, human", "settings": "day 1 to day 5; relative to Non-HA group day 1 = 1; simvastatin 1 μM", "description": "as §1, §2"}, "[5]": {"test_system": "human adipose-derived stem cells (hADSCs)", "assay": "sGAG formation (DMMB analysis) in hADSCs cultured in wells coated with or without hyaluronic acid", "format": "cell-based", "settings": "day 7, standardized with DNA", "description": "Sulfated glycosaminoglycan (sGAG) is a major extracellular matrix of articular cartilage. In order to test whether simvastatin can promote the expression of sGAG in human adipose-derived stem cells (hADSCs) and its optimal concentration, the present invention first prepared hyaluronic acid (HA) coated wells by coating hyaluronic acid dissolved in 1 ml of phosphate buffer (PBS, 1% w/w) on a 24-well plate, standing at 37° C. for 48 hours, then washed with PBS two times. Human adipose-derived stem cells were seeded in wells containing 500 μl of basal medium at a density of 1×10^5 cells per well, wherein the basal medium contains Dulbecco's modified Eagle's medium (DMEM), and was additionally supplemented with 5% fetal bovine serum (FBS), 1% nonessential amino acids and 100 U/ml of penicillin/streptomycin (Gibco-BRL, Grand Island, N.Y.). During the culturing period, simvastatin at different concentrations (0.1 to 1 μM) was added to the well plate, and the medium was replaced with fresh one every two days. On day 7 after the cultivation started, cells were collected for dimethylmethylene blue (DMMB) analysis with Blyscan sulfated glycosaminoglycan reagent (Biocolor, Antrim, UK), and for standardization of sulfated glycosaminoglycan (sGAG) formation with DNA."}, "[6]": {"test_system": "Col II", "assay": "real-time PCR, chondrogenic gene Col II in hADSCs in HA-coated or non-coated wells", "format": "cell-based, human", "settings": "1 μM simvastatin, with or without 1% HA coating, 1 to 5 days", "description": "as §1, §2"}}, "note": "Values joined by “and” are separate entries in the source; they are usually repeats but may differ in a detail not shown here. Equal entries are not always repeated.", "data": [{"molecule": "CCC(C)(C)C(=O)O[C@H]1C[C@@H](C)C=C2C=C[C@H](C)[C@H](CC[C@@H]3C[C@@H](O)CC(=O)O3)[C@H]21", "note": "[simvastatin]", "values": [{"measurement": "expression of chondrogenic gene aggrecan", "setting": "[1]", "value": "failed to effectively enhance"}, {"measurement": "expression of chondrogenic gene Sox-9", "setting": "[2]", "value": "failed to effectively enhance"}, {"measurement": "expression of BMP-2 gene", "setting": "[3]; day 1", "value": 1.2, "unit": "fold"}, {"measurement": "expression of BMP-2 gene", "setting": "[3]; day 3", "value": 0.8, "unit": "fold"}, {"measurement": "expression of BMP-2 gene", "setting": "[3]; day 5, listed as Non-HA+Sim", "value": "1.1 fold and 2.1 fold"}, {"measurement": "expression of osteocalcin gene", "setting": "[4]", "value": "significantly increased"}, {"measurement": "expression level of sGAG", "setting": "[5]; absence of hyaluronic acid (Non-HA), simvastatin 0.1 μM", "value": 0.5, "unit": "µg/µg"}, {"measurement": "expression level of sGAG", "setting": "[5]; absence of hyaluronic acid (Non-HA), simvastatin 0.5 μM", "value": 0.5, "unit": "µg/µg"}, {"measurement": "expression level of sGAG", "setting": "[5]; absence of hyaluronic acid (Non-HA), simvastatin 1 μM", "value": 0.7, "unit": "µg/µg"}, {"measurement": "expression level of sGAG", "setting": "[5]; presence of 1% hyaluronic acid, simvastatin 0.1 μM", "value": 1.3, "unit": "µg/µg"}, {"measurement": "expression level of sGAG", "setting": "[5]; presence of 1% hyaluronic acid, simvastatin 0.5 μM", "value": 2.5, "unit": "µg/µg"}, {"measurement": "expression level of sGAG", "setting": "[5]; presence of 1% hyaluronic acid, simvastatin 1 μM", "value": 2.8, "unit": "µg/µg"}, {"measurement": "expression of chondrogenic gene Col II", "setting": "[6]", "value": "failed to effectively enhance"}]}]}
